Legend:
Assay type in all cases: binding
[1] = biological target: T1, SW480 colon carcinoma cells lysate proteins (Homo sapiens, UniProt Q5XKE5); conditions: PreyGene KRT79; SW480 cells
T1 sequence (Q5XKE5 1-535): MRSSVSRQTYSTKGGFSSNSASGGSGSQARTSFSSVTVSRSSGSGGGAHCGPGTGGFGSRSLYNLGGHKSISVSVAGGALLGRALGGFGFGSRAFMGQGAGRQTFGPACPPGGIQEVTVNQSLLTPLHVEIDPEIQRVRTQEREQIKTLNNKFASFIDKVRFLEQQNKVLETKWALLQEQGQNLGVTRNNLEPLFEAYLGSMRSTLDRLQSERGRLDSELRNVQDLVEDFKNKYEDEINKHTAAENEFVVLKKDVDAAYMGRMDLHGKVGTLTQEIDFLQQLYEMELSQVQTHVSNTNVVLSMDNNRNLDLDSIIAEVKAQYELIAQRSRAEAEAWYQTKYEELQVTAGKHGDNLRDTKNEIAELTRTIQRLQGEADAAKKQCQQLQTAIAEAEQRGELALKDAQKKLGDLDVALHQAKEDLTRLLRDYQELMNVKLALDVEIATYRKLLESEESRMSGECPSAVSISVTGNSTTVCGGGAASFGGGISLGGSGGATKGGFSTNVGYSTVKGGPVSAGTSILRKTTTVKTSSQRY

[2] = biological target: SW480 colon carcinoma cells lysate proteins (Homo sapiens, UniProt Q71U36); conditions: PreyGene TUBA1A; SW480 cells
[3] = biological target: T2, SW480 colon carcinoma cells lysate proteins (Homo sapiens, UniProt Q9H910); conditions: PreyGene HN1L
T2 sequence (Q9H910 1-190): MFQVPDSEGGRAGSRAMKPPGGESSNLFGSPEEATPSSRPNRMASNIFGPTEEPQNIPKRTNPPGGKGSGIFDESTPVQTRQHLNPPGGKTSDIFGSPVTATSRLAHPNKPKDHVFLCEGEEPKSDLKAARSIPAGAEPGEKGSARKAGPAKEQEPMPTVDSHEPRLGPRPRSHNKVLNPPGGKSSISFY

[4] = biological target: SW480 colon carcinoma cells lysate proteins (Homo sapiens, UniProt P22626); conditions: PreyGene HNRNPA2B1
[5] = biological target: SW480 colon carcinoma cells lysate proteins (Homo sapiens, UniProt P62861); conditions: PreyGene FAU
[6] = biological target: SW480 colon carcinoma cells lysate proteins (Homo sapiens, UniProt Q9Y265); conditions: PreyGene RUVBL1
[7] = biological target: SW480 colon carcinoma cells lysate proteins (Homo sapiens, UniProt O43707); conditions: PreyGene ACTN4
[8] = biological target: T3, SW480 colon carcinoma cells lysate proteins (Homo sapiens, UniProt P04264); conditions: PreyGene KRT1
T3 sequence (P04264 1-644): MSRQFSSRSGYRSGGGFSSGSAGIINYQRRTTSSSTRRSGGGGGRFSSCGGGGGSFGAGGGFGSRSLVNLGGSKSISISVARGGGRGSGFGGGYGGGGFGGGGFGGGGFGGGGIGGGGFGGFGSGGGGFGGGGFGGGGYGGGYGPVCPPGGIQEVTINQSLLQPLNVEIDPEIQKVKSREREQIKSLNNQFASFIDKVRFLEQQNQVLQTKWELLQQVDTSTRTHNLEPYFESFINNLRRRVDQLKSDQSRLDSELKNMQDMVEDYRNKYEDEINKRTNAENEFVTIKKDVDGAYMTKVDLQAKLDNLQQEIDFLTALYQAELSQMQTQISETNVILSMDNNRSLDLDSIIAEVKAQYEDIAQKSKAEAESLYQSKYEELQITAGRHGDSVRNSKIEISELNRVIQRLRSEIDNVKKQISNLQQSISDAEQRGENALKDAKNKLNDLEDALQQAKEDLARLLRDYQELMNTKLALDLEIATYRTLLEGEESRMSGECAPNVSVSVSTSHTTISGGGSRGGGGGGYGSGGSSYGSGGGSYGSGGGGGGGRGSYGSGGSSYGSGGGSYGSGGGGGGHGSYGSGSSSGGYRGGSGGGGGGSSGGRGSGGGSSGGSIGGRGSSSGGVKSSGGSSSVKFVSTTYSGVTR

[9] = biological target: SW480 colon carcinoma cells lysate proteins (Homo sapiens, UniProt P38646); conditions: PreyGene HSPA9
Sequence of SW480 colon carcinoma cells lysate proteins (Homo sapiens, UniProt P38646) (P38646 47-679): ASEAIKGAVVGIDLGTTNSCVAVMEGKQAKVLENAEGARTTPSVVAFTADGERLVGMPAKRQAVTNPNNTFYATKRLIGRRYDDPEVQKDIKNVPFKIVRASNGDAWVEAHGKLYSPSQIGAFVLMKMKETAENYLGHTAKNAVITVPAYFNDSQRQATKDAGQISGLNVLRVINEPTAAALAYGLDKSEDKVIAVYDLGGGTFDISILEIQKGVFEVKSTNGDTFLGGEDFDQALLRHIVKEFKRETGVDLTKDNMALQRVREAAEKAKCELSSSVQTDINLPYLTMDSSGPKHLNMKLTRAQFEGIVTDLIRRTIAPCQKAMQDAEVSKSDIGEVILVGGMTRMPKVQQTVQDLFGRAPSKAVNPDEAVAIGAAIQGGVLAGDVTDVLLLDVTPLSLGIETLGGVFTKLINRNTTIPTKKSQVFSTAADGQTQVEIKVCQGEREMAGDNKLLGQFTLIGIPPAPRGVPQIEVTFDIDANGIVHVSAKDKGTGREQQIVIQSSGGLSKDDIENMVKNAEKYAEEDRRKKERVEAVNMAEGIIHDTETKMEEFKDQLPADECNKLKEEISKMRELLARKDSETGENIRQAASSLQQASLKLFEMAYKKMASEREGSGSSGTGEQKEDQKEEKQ

Sequence of SW480 colon carcinoma cells lysate proteins (Homo sapiens, UniProt P22626) (P22626 whole entry): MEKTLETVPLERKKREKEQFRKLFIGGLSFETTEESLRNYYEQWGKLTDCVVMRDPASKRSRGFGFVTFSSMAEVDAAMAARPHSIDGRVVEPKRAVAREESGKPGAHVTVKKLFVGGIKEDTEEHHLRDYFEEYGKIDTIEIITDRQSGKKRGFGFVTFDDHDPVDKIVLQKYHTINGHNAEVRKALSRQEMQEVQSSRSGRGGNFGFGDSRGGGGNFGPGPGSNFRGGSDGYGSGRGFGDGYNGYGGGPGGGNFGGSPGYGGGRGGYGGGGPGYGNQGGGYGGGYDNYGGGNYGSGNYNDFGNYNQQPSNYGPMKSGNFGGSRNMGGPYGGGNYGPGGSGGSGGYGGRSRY
Sequence of SW480 colon carcinoma cells lysate proteins (Homo sapiens, UniProt O43707) (O43707 whole entry): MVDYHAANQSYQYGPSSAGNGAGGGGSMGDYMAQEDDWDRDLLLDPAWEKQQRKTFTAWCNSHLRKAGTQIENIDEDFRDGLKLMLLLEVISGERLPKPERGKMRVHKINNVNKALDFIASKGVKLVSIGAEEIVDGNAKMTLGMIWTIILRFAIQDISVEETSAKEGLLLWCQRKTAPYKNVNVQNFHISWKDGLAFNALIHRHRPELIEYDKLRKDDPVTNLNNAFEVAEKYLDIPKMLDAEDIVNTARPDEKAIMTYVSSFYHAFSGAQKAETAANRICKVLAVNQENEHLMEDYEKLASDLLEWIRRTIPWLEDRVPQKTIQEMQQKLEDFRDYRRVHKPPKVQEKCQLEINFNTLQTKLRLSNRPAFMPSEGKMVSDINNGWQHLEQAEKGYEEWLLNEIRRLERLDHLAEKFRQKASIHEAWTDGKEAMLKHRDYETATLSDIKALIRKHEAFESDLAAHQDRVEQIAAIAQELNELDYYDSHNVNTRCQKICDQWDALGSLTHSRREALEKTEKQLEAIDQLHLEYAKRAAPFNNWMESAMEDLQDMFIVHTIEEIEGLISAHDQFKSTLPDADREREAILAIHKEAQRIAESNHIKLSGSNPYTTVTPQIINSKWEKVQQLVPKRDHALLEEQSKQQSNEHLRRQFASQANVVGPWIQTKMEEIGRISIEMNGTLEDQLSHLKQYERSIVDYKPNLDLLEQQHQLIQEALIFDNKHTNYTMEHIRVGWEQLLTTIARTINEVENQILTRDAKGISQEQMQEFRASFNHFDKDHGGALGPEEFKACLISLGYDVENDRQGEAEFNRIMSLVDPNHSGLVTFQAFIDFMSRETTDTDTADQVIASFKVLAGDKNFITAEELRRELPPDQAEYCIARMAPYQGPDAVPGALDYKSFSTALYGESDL
Sequence of SW480 colon carcinoma cells lysate proteins (Homo sapiens, UniProt Q71U36) (Q71U36 whole entry): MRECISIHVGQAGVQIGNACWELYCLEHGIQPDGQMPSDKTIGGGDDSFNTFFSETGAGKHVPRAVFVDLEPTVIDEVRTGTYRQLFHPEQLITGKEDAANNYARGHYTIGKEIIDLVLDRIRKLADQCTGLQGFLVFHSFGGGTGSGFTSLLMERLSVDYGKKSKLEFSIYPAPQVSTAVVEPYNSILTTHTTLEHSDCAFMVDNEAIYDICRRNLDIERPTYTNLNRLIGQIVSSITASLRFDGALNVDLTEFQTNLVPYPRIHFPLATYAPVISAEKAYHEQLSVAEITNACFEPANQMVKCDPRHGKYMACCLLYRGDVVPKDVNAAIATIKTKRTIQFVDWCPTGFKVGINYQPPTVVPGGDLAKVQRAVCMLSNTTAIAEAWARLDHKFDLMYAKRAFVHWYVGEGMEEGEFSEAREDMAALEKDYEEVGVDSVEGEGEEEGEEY
Sequence of SW480 colon carcinoma cells lysate proteins (Homo sapiens, UniProt Q9Y265) (Q9Y265 whole entry): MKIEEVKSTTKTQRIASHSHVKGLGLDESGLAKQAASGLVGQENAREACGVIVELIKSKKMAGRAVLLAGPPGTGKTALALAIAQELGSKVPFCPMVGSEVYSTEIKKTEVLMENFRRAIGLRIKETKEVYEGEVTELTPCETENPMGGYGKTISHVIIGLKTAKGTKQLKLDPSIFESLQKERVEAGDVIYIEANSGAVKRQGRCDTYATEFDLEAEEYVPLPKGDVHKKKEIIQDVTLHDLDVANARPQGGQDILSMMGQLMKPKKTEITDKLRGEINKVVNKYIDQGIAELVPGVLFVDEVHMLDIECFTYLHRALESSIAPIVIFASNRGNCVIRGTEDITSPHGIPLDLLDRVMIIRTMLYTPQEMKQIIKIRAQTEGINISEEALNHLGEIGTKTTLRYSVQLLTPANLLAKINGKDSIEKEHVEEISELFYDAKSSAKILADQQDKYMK

For C[C@H](Oc1cc(-c2cnn(C3CCNCC3)c2)cnc1N)c1c(Cl)ccc(F)c1Cl [(5)-crizotinib], the AvgP [1] was 0, the “SC.Exp. 1-1” value [1] was 0 and the “SC.Exp. 1-2” value [1] was 1. The “SC.Exp. 2-1” value [1] was 0, the “SC.Exp. 2-2” value [1] was 0 and the “SC.Exp. Sum” value [1] was 1. For the same compound, the AvgP [2] was 0, the “SC.Exp. 1-1” value [2] was 12 and the “SC.Exp. 1-2” value [2] was 11. The “SC.Exp. 2-1” value [2] was 9, the “SC.Exp. 2-2” value [2] was 10 and the “SC.Exp. Sum” value [2] was 42. The AvgP [3] was 0.1898, the “SC.Exp. 1-1” value [3] was 0 and the “SC.Exp. 1-2” value [3] was 2. The “SC.Exp. 2-1” value [3] was 0, the “SC.Exp. 2-2” value [3] was 0 and the “Sum (SC.Exp.)” value [3] was 2. For the same compound, the AvgP [4] was 0.2944, the “SC.Exp. 1-1” value [4] was 2 and the “SC.Exp. 1-2” value [4] was 2. The “SC.Exp. 2-1” value [4] was 0, the “SC.Exp. 2-2” value [4] was 2 and the “Sum (SC.Exp.)” value [4] was 6. The AvgP [5] was 0.2109, the “SC.Exp. 1-1” value [5] was 2 and the “SC.Exp. 1-2” value [5] was 4. The “SC.Exp. 2-1” value [5] was 0, the “SC.Exp. 2-2” value [5] was 2 and the “Sum (SC.Exp.)” value [5] was 8. The AvgP [6] was 0.3864, the “SC.Exp. 1-1” value [6] was 2 and the “SC.Exp. 1-2” value [6] was 3. For the same compound, the “SC.Exp. 2-1” value [6] was 0, the “SC.Exp. 2-2” value [6] was 0 and the “Sum (SC.Exp.)” value [6] was 5. For the same compound, the AvgP [7] was 0.2923, the “SC.Exp. 1-1” value [7] was 4 and the “SC.Exp. 1-2” value [7] was 4. The “SC.Exp. 2-1” value [7] was 0, the “SC.Exp. 2-2” value [7] was 0 and the “Sum (SC.Exp.)” value [7] was 8. The AvgP [8] was 0.3569, the “SC.Exp. 1-1” value [8] was 26 and the “SC.Exp. 1-2” value [8] was 24. For the same compound, the “SC.Exp. 2-1” value [8] was 5, the “SC.Exp. 2-2” value [8] was 3 and the “Sum (SC.Exp.)” value [8] was 58. For the same compound, the AvgP [9] was 0.3567, the “SC.Exp. 1-1” value [9] was 2 and the “SC.Exp. 1-2” value [9] was 3. The “SC.Exp. 2-1” value [9] was 0, the “SC.Exp. 2-2” value [9] was 0 and the “Sum (SC.Exp.)” value [9] was 5.
